This is an account of results in patent US9873693B2 (Sunesis Pharmaceuticals, Inc., priority 2006, dated 2018).

phosphorylated PDK1, sequence (O15530 51-360): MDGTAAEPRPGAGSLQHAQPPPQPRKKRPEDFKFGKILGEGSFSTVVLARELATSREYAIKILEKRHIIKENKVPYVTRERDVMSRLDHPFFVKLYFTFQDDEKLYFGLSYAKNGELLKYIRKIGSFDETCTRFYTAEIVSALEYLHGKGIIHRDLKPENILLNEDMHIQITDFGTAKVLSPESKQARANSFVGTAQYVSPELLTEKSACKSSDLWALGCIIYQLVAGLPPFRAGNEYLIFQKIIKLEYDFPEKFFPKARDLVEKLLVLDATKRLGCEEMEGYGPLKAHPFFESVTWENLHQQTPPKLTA

One experiment addresses phosphorylated PDK1 (Homo sapiens (Human), UniProt O15530). Briefly: PDK1 kinase assay (coupled PDK1/AKT/FAM-crosstide, IMAP). It is filed as biochemical. The conditions noted are these: 0.5 nM phosphorylated PDK1, 24 μM ATP; read-out: Inhibition of phospo-PDK1 in vitro IC50.
As usually defined, the IC50 is the point on the concentration scale where inhibition reaches its midpoint. With `O=C(O)c1cnc2[nH]cc(-c3cccc(CNC(=O)c4cccn(-c5cccc(F)c5F)c4=O)c3)c2c1` [Cpd 238], the IC50 was under 500 nM.
Regarding `NS(=O)(=O)c1cccc(-c2cccc(CNC(=O)c3cccn(Cc4ccc(F)c(F)c4)c3=O)c2)c1` [Cpd 227], the IC50 was over 10000 nM.
`O=C(N[C@@H](COc1ccc2[nH]c(=O)[nH]c2c1)C(=O)O)c1cccn(Cc2cc(F)c(F)c(F)c2)c1=O` [Cpd 154]: the IC50 was under 500 nM.
Consider `NS(=O)(=O)c1ccccc1-c1cccc(CNC(=O)c2cccn(Cc3ccc(F)c(F)c3)c2=O)c1` [Cpd 226], for which the IC50 was over 10000 nM.
In the case of `COc1ccnc(NCCC#CCCNC(=O)c2cccn(Cc3cccc(Cl)c3)c2=O)n1` [Cpd 250], the concentration for half-maximal inhibition (IC50) is 500 to 10000 nM.
Turning to `O=C(NCCCCCCc1c[nH]c2ncccc12)c1cccn(Cc2ccc(F)c(F)c2)c1=O` [Cpd 338], the IC50 is under 500 nM.
The same measure, in the same setting: with `COc1ccnc(NCCCCCNC(=O)c2cccn(Cc3ccc(Cl)c(Cl)c3)c2=O)n1` [Cpd 251] the figure was 500 to 10000 nM; with `O=C(Nc1cccc(C(=O)c2c[nH]c3ccccc23)c1)c1cccn(Cc2ccc(F)c(F)c2)c1=O` [Cpd 221], over 10000 nM.
For the compound `O=C(NCC12CC3CC(C1)CC(c1c[nH]c4ncccc14)(C3)C2)c1cccn(Cc2ccc(F)c(F)c2)c1=O` [Cpd 327], the IC50 is 500 to 10000 nM.
Take `O=C(Nc1cccc(C(=O)c2c[nH]c3ncccc23)c1)c1cccn(Cc2ccc(F)c(F)c2)c1=O` [Cpd 127]: the IC50 is under 500 nM.
The same measure, in the same setting: for `O=C(N[C@@H](COc1cc2[nH]c(=O)[nH]c2cn1)c1ccccc1)c1cccn(Cc2cc(F)c(F)c(F)c2)c1=O` [Cpd 176] the value was under 500 nM; for `O=C(NCc1cc(-c2c[nH]c3ncccc23)ncn1)c1cccn(Cc2ccc(F)c(F)c2)c1=O` [Cpd 149], under 500 nM.
Turning to `CN1CCC(=C2C(=O)Nc3cc(/C=C/CNC(=O)c4cccn(Cc5cc(F)c(F)c(F)c5)c4=O)ccc32)CC1` [Cpd 211], the IC50 is under 500 nM.
In the case of `O=C1Cc2ccc(OCCNC(=O)c3cccn(Cc4cc(F)c(F)c(F)c4)c3=O)cc2N1` [Cpd 207], the IC50 is under 500 nM.
As to `O=C(c1cccn(Cc2ccc(F)c(F)c2)c1=O)N1CCN(C(=O)c2c[nH]c3ncccc23)CC1` [Cpd 233], the IC50 was over 10000 nM.
On to `Cn1ccnc1/C=C1/C(=O)Nc2cc(/C=C/CNC(=O)c3cccn(Cc4cc(F)c(F)c(F)c4)c3=O)ccc21` [Cpd 210], for which the IC50 was under 500 nM.
`NS(=O)(=O)c1ccc(-c2cccc(CNC(=O)c3cccn(Cc4ccc(F)c(F)c4)c3=O)c2)cc1` [Cpd 228]: the IC50 is over 10000 nM.
As for `O=C(NCCCCc1c[nH]c2ncccc12)c1cc(Cl)cn(Cc2ccc(Cl)cc2)c1=O` [Cpd 268], the IC50 was under 500 nM.
The same measure, in the same setting: with `O=C(NCc1cccc(-c2c[nH]c3ncc(CO)cc23)c1)c1cccn(Cc2ccc(F)c(F)c2)c1=O` [Cpd 8] the figure was under 500 nM.
`O=C(NCC1CCC(c2c[nH]c3ncccc23)CC1)c1cccn(Cc2ccc(F)c(F)c2)c1=O` (stereo not drawn) [Cpd 223]: the IC50 was over 10000 nM.

A further experiment has as its system phospho-akt (Thr308). The experiment is described as follows: phospho-akt (Thr308) MSD ELISA in PC-3 cells. It is filed as cell-based. As to conditions: Homo sapiens, PC-3, 2 h, PC-3 cells, 2 hours, no serum; read-out: Inhibition of P308 Akt in cells using MSD EC50. The method, then: PC-3 cells were harvested by trypsin and counted. Cells were plated in coated 96-well flat bottom plates (plate 15,000 cells/well in 100 ul growth media (10% FBS, 1× pen-strep) an place in an incubator overnight.
Subject inhibitors were stocked at 50 mM, then diluted to 30 mM (4.8 μl cpd plus […] DMSO) in 100% DMSO. Three-fold dilutions were performed from 30 mM stock. (4 μl into 8 ul 100% DMSO). Aliquots of 1.0 μl of inhibitor solution were transferred into SF Medium (using deep well block).
Control wells were prepared as follows. For DMSO high controls, 1.0 μl of 100% DMSO was added into 1.0 ml SF.
MSD plates were blocked for 1 hour by adding 150 μl of Blocking Solution (3% BSA) to each well. The MSD plates were washed 4× with TBST, and 50 μl lysates were transferred to MSD plate and place on plate shaker shake at 4 degrees O/N, light shaking (speed 3.5). The plate was washed 4× with TBST.
25 μl of Ab detection solution was added to each well. The plate was sealed and incubated 1 hr RT, light shaking (speed 3.5). The plate was washed 4 times with TBST. 150 μl of Read Buffer was added (5 mls 4×MSD Read Buffer+15 mls water). Finally the plate was read immediately on the MSD plate reader.
(An ELISA detects its analyte on a solid surface through an enzyme-linked reagent.)
For orientation: EC50 means the concentration at which the effect is half-maximal. With `O=C(NCc1cccc(-c2c[nH]c3nccc(F)c23)c1)c1cccn(Cc2ccc(F)c(F)c2)c1=O` [Cpd 74], the EC50 fell in the range of 1 to 5 µM.
With `O=C(O)c1cc(-c2c[nH]c3ncccc23)cc(CNC(=O)c2cccn(Cc3ccc(F)c(F)c3)c2=O)n1` [Cpd 172], the EC50 was over 5 µM.
Regarding `O=C(N[C@@H](COc1ccc2[nH]c(=O)[nH]c2c1)C1CC1)c1cccn(Cc2cc(F)c(F)c(F)c2)c1=O` [Cpd 168], the EC50 lay in the range of 1 to 5 µM.
For `Nc1ncnc2ccc(-c3cccc(CNC(=O)c4cccn(Cc5ccc(F)c(F)c5)c4=O)c3)cc12` [Cpd 64], the EC50 is over 5 µM.
With `CS(=O)(=O)N1CCC(Oc2cc(CNC(=O)c3cccn(Cc4ccc(F)c(F)c4)c3=O)cc(-c3c[nH]c4ncccc34)c2)CC1` [Cpd 94], the EC50 is under 1 µM.
As to `C=C[C@H](COc1ccc2[nH]c(=O)[nH]c2c1)NC(=O)c1cccn(Cc2cc(F)c(F)c(F)c2)c1=O` [Cpd 159], the EC50 lay within 1 to 5 µM.
Take `O=C(NCCOc1ccc2[nH]c(=O)[nH]c2c1F)c1cccn(Cc2ccc(F)c(F)c2)c1=O` [Cpd 169]: the EC50 was 1 to 5 µM.
Turning to `O=C(NCc1cccc(-c2c[nH]c3ncc(C(=O)N4CCOCC4)cc23)c1)c1cccn(Cc2ccc(F)c(F)c2)c1=O` [Cpd 69], the EC50 was under 1 µM.
As for `O=C(NCc1cc(OCC(O)CO)cc(-c2c[nH]c3ncccc23)c1)c1cccn(Cc2ccc(F)c(F)c2)c1=O` (stereo not drawn) [Cpd 68], the EC50 lay within 1 to 5 µM.
Still for that read-out and setting: for `CN(C)C(=O)COc1cc(CNC(=O)c2cccn(Cc3ccc(F)c(F)c3)c2=O)cc(-c2c[nH]c3ncccc23)c1` [Cpd 63] the value was under 1 µM.
With `O=C(NCc1cc(OC2CCNCC2)cc(-c2c[nH]c3ncccc23)c1)c1cccn(Cc2ccc(F)c(F)c2)c1=O` [Cpd 67], the EC50 was under 1 µM.
`O=C(NCc1noc(-c2c[nH]c3ncccc23)n1)c1cccn(Cc2cc(F)c(F)c(F)c2)c1=O` [Cpd 138]: the EC50 is 1 to 5 µM.
As for `CCn1nc(NC(=O)c2cccn(Cc3ccc(F)c(F)c3)c2=O)c2cc(-c3c[nH]c4ncccc34)ccc21` [Cpd 95], the EC50 was 1 to 5 µM.
With `O=C(NCc1ccc(O)c(-c2c[nH]c3ncccc23)c1)c1cccn(Cc2ccc(F)c(F)c2)c1=O` [Cpd 82], the EC50 was in the range of 1 to 5 µM.
The same measure, in the same setting: for `O=C(NCc1cccc(-c2c[nH]c(C(=O)N3CCOCC3)c2)c1)c1cccn(Cc2ccc(F)c(F)c2)c1=O` [Cpd 76] the value was 1 to 5 µM; for `CC(c1ccc(C(F)(F)F)cc1)n1cccc(C(=O)NCc2noc(-c3c[nH]c4ncccc34)n2)c1=O` (stereo not drawn) [Cpd 140], 1 to 5 µM.
On the same count and under the same terms, with `C[C@H](COc1ccc2[nH]c(=O)[nH]c2c1)NC(=O)c1cccn(Cc2cc(F)c(F)c(F)c2)c1=O` [Cpd 173] the figure was 1 to 5 µM; with `O=C(NC/C=C/c1ccc2[nH]c(=O)[nH]c2c1)c1cccn(Cc2cc(F)c(F)c(F)c2)c1=O` [Cpd 170], 1 to 5 µM.
With `NC(=O)COc1cc(CNC(=O)c2cccn(Cc3ccc(F)c(F)c3)c2=O)cc(-c2c[nH]c3ncccc23)c1` [Cpd 62], the EC50 was under 1 µM.
With `Cn1nc(NC(=O)c2cccn(Cc3ccc(F)c(F)c3)c2=O)c2cc(-c3c[nH]c4ncccc34)ccc21` [Cpd 87], the EC50 is under 1 µM.
Take `O=C(NCc1cccc(-c2c[nH]c3ncccc23)c1)c1cccn(Cc2ccc(C(F)(F)F)cc2)c1=O` [Cpd 145]: the EC50 is over 5 µM.
As to `Nc1ncnc2ccc(-c3ccc(CNC(=O)c4cccn(Cc5ccc(F)c(F)c5)c4=O)s3)cc12` [Cpd 70], the EC50 is under 1 µM.
In the case of `O=C(NCc1ccc(OCCN2CCOCC2)c(-c2c[nH]c3ncccc23)c1)c1cccn(Cc2ccc(F)c(F)c2)c1=O`, the EC50 was 1 to 5 µM.
The same measure, in the same setting: with `CC(C)(C)OC(=O)N1CCC(Oc2cc(CNC(=O)c3cccn(Cc4ccc(F)c(F)c4)c3=O)cc(-c3c[nH]c4ncccc34)c2)CC1` [Cpd 88] the figure was over 5 µM; with `CC(C)Oc1cc(CNC(=O)c2cccn(Cc3cc(F)c(F)c(F)c3)c2=O)cc(-c2c[nH]c3ncccc23)c1` [Cpd 65], under 1 µM.
On the same count and under the same terms, with `O=C(NCc1cc(OC2CCCC2)cc(-c2c[nH]c3ncccc23)c1)c1cccn(Cc2ccc(F)c(F)c2)c1=O` [Cpd 85] the figure was 1 to 5 µM; with `O=C(N[C@@H](COc1ccc2[nH]c(=O)[nH]c2c1)c1ccccc1Cl)c1cccn(Cc2cc(F)c(F)c(F)c2)c1=O` [Cpd 151], under 1 µM; with `O=C(Nc1ccnc2ccc(-c3c[nH]c4ncccc34)cc12)c1cccn(Cc2ccc(F)c(F)c2)c1=O` [Cpd 66], under 1 µM.
Turning to `O=C(NCc1cc(OC2CCCCC2)cc(-c2c[nH]c3ncccc23)c1)c1cccn(Cc2ccc(F)c(F)c2)c1=O` [Cpd 84], the EC50 was over 5 µM.
For `O=C(NCc1coc(-c2c[nH]c3ncccc23)n1)c1cccn(Cc2ccc(F)c(F)c2)c1=O` [Cpd 131], the EC50 fell in the range of 1 to 5 µM.

Staying with this experiment, now noted: Homo sapiens, PC-3, 2 h, PC-3 cells, 2 hours, no serum; read-out: Reduction of Cellular Levels of Akt p308 By MSD ELISA (EC50 μM).
For `O=C(NCc1noc(-c2c[nH]c3ncccc23)n1)c1cccn(Cc2cc(F)c(F)c(F)c2)c1=O` [Cpd 138], the EC50 was 1 to 5 µM.
With `CC(c1ccc(C(F)(F)F)cc1)n1cccc(C(=O)NCc2noc(-c3c[nH]c4ncccc34)n2)c1=O` (stereo not drawn) [Cpd 140], the EC50 fell in the range of 1 to 5 µM.
As to `O=C(NCc1cccc(-c2c[nH]c3ncccc23)c1)c1cccn(Cc2ccc(C(F)(F)F)cc2)c1=O` [Cpd 145], the EC50 is 1 to 5 µM.
As to `O=C(NCc1cccc(-c2c[nH]c3ncc(-c4nnn[nH]4)cc23)c1)c1cccn(Cc2ccc(F)c(F)c2)c1=O` [Cpd 43], the EC50 is over 5 µM.
Still for that read-out and setting: with `O=C(Nc1n[nH]c2ccc(-c3c[nH]c4ncccc34)cc12)c1cccn(Cc2ccc(F)c(F)c2)c1=O` [Cpd 42] the figure was 1 to 5 µM; with `O=C(NCc1coc(-c2c[nH]c3ncccc23)n1)c1cccn(Cc2ccc(F)c(F)c2)c1=O` [Cpd 131], 1 to 5 µM.

The same experiment, now with this note: Homo sapiens, PC-3, 2 h, read-out: Inhibition of P308 Akt in cells using MSD EC50.
With `CN1CCC(Oc2cc(CNC(=O)c3cccn(Cc4ccc(F)c(F)c4)c3=O)cc(-c3c[nH]c4ncccc34)c2)CC1` [Cpd 86], the concentration giving a half-maximal response (EC50) was 1 to 5 µM.
With `O=C(NC(COc1ccc2[nH]c(=O)[nH]c2c1)c1cccnc1)c1cccn(Cc2cc(F)c(F)c(F)c2)c1=O` (stereo not drawn) [Cpd 163], the EC50 lay in the range of 1 to 5 µM.

The experiment is the same for the next values; noted with them: Homo sapiens; PC-3 cells, at 1 μM; read-out: Percent Inhibition of phospho-Akt (308) By MSD ELISA.
In general, inhibition refers to the share of the control response that was lost under treatment. For the compound `O=C(NCc1noc(-c2c[nH]c3ncccc23)n1)c1cccn(Cc2ccc(F)c(F)c2)c1=O` [Cpd 129], the inhibition at 1 µM was under 25%.

The experiment is the same for the next values; noted with them: Homo sapiens; PC-3 cells, at 10 μM; read-out: Percent Inhibition of phospho-Akt (308) By MSD ELISA.
For `O=C(NCc1noc(-c2c[nH]c3ncccc23)n1)c1cccn(Cc2ccc(F)c(F)c2)c1=O` [Cpd 129], the inhibition at 10 µM is under 25%.
